Calls of active or inactive are those of the source. No cut-off for these calls is given here.
Tests used:
MOLM-13 [1] = experiment: Antiproliferation activity against human MOLM-13 cells incubated for 72 hrs by celltiter-glo assay; assay type: functional, cell-based
[2] = Tmax in C57BL/6 mouse at 10 mg/kg, ip measured upto 24 hrs by LC-MS/MS analysis; assay type: ADME, organism-based; details: in vivo
[3] = Drug concentration in C57BL/6 mouse plasma at 20 mg/kg, ip measured after 30 mins by LC-MS/MS analysis; assay type: ADME, organism-based
[4] = biological target: T1, Serine/threonine-protein kinase 4 (Homo sapiens, UniProt Q13043)
T1 sequence (Q13043 whole entry): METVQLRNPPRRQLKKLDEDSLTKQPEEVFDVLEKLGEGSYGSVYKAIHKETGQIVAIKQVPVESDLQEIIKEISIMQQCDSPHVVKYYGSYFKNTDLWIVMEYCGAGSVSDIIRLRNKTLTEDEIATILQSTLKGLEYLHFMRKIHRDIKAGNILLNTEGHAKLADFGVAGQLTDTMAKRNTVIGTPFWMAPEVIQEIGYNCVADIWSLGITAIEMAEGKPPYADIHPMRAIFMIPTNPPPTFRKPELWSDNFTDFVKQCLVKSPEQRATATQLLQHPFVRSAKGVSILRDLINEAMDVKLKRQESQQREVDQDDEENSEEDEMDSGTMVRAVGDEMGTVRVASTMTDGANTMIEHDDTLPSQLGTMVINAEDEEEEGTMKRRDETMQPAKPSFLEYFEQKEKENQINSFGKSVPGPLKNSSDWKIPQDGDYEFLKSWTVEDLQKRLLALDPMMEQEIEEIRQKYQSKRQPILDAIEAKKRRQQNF
Description: Displacement of K5 tracer from full length C-terminal NanoLuc fused human STK4 expressed in HEK293T cells incubated for 2 hrs by NanoBRET assay

[5] = Cmax in C57BL/6 mouse at 10 mg/kg, ip measured upto 24 hrs by LC-MS/MS analysis; assay type: ADME, organism-based; set-up: route intraperitoneal, dose 10 mg/kg, time <=24; details: in vivo
[6] = biological target: T2, Serine/threonine-protein kinase 3 (Homo sapiens, UniProt Q13188)
T2 sequence (Q13188 whole entry): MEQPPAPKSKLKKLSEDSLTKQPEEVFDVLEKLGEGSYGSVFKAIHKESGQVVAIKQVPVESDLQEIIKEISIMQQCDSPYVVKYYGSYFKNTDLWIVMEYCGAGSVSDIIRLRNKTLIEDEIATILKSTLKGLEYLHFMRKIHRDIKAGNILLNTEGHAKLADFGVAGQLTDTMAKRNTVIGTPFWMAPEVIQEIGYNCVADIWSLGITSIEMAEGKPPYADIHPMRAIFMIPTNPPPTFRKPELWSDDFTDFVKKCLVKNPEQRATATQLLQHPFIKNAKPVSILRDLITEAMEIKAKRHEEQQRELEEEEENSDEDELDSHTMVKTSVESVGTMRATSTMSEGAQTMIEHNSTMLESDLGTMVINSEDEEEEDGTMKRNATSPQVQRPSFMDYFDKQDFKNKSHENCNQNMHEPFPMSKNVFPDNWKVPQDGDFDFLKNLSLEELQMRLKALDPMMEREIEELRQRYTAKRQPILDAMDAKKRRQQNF

[7] = biological target: T3, Serine/threonine-protein kinase STK11 (Homo sapiens) (UniProt Q15831); experiment: Inhibition of LKB1 (unknown origin) by NanoBRET intracellular kinase assay; assay type: cell-based; details: time 2.0 hrs
T3 sequence (whole entry): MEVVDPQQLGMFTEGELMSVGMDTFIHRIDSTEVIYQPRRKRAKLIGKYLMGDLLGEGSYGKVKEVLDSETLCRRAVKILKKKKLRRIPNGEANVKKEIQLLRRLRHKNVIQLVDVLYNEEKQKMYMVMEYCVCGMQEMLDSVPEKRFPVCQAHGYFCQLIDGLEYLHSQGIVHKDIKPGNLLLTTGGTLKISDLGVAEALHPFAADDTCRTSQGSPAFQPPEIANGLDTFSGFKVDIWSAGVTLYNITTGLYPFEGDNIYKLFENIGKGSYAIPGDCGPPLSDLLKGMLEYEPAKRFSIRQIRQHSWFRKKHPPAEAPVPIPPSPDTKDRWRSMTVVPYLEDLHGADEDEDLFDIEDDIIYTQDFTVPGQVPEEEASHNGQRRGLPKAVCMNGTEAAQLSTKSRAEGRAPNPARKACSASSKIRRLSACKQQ

THP-1 = experiment: Antiproliferation activity against human THP-1 cells incubated for 72 hrs by celltiter-glo assay; assay type: functional, cell-based
[8] = biological target: Protein kinase C theta type (Homo sapiens) (UniProt Q04759); experiment: Inhibition of wild type partial length human PRKCQ (L350 to S706 residues) expressed in bacterial expression system by KdELECT assay
Protein kinase C theta type (Homo sapiens), sequence (Q04759 whole entry, looked up, the tested form may be a part): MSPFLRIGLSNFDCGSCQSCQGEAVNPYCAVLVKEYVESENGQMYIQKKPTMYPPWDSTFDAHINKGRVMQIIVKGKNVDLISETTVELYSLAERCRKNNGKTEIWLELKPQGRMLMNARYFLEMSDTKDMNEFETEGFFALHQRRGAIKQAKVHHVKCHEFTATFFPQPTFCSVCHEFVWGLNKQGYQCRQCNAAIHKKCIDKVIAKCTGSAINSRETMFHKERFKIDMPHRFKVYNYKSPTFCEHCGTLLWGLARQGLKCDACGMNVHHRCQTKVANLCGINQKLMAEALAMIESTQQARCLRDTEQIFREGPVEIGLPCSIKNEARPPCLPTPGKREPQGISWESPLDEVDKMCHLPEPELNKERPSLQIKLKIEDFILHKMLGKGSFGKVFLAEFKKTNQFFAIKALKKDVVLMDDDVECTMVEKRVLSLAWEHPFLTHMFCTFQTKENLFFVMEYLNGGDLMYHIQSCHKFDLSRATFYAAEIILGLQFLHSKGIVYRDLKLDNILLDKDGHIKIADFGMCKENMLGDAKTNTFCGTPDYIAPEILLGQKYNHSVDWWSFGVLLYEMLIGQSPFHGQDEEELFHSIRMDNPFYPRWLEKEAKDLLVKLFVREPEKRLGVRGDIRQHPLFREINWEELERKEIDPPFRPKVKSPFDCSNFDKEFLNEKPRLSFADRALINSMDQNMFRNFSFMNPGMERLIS

[9] = Half life in C57BL/6 mouse at 10 mg/kg, ip measured upto 24 hrs by LC-MS/MS analysis; assay type: ADME, organism-based; details: in vivo
MV4-11 = experiment: Antiproliferation activity against human MV4-11 cells incubated for 72 hrs by celltiter-glo assay; assay type: functional, cell-based
MOLM-13 [10] = experiment: Inhibition of MOB1 phosphorylation in human MOLM-13 cells assessed as decrease in pMOB1 activity at 1 uM preincubated for 4 hrs followed by H2O2 addition for 2 hrs by Western blotting analysis; assay type: cell-based; details: time 6.0 hrs
SKNO-1 = experiment: Antiproliferation activity against human SKNO-1 cells incubated for 72 hrs by celltiter-glo assay; assay type: functional, cell-based
[11] = biological target: T4, Serine/threonine-protein kinase 3 (Homo sapiens) (UniProt Q13188); experiment: Inhibition of STK3 in HEK293 cells assessed as increase in YAP/TAZ-TEAD activity at 10 uM incubated for 48 hrs by Dual-Glo luciferase assay; assay type: cell-based
T4 sequence (whole entry): T2 sequence (Q13188 whole entry)

[12] = biological target: T4, Serine/threonine-protein kinase 3 (Homo sapiens); experiment: Inhibition of STK3 (unknown origin) by KdELECT assay
OCI-AML-3 = experiment: Antiproliferation activity against human OCI-AML-3 cells incubated for 72 hrs by celltiter-glo assay; assay type: functional, cell-based
[13] = biological target: T2, Serine/threonine-protein kinase 3; remark: listed apart in the source
Description: Displacement of K5 tracer from full length C-terminal NanoLuc fused human STK3 expressed in HEK293T cells incubated for 2 hrs by NanoBRET assay

[14] = biological target: T5, Serine/threonine-protein kinase RIO3 (Homo sapiens) (UniProt O14730); experiment: Inhibition of wild type full length human RIOK3 (M1 to E519 residues) expressed in bacterial expression system by KdELECT assay
T5 sequence (whole entry): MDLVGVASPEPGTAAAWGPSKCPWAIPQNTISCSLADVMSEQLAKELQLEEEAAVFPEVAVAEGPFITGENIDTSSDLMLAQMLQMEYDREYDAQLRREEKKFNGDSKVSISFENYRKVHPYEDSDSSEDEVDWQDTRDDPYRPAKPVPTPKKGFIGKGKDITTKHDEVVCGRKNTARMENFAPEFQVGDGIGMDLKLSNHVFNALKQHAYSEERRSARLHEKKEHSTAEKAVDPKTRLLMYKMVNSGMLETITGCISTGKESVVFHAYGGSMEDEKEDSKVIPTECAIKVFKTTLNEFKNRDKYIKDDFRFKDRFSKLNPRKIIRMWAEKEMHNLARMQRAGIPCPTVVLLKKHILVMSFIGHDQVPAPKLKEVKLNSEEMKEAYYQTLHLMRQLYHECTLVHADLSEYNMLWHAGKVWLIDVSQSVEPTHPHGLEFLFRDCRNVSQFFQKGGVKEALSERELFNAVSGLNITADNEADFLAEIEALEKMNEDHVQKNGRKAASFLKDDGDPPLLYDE

[15] = biological target: T4, Serine/threonine-protein kinase 3 (Homo sapiens); experiment: Inhibition of recombinant N-terminal His6-tagged human STK3 (18 to 311 residues) expressed in Escherichia coli assessed as melting temperature at 20 uM by thermal shift assay
Mus musculus = experiment: In vivo inhibition of STK3/4 in C57BL/6 mouse assessed as decrease in Thr35phosphorylated-MOB1 protein level in liver at 10 mg/kg, ip administered for 1 hr by Western blotting analysis; assay type: functional, organism-based
[16] = Kinetic solubility of compound in PBS at pH 7.4; assay type: physicochemical; details: buffer
Kasumi 1 = experiment: Antiproliferation activity against human Kasumi 1 cells incubated for 72 hrs by celltiter-glo assay; assay type: functional, cell-based
[17] = AUC (0 to t) in C57BL/6 mouse at 10 mg/kg, ip measured upto 24 hrs by LC-MS/MS analysis; assay type: ADME, organism-based; set-up: dose 10 mg/kg, time <=24; details: in vivo
[18] = biological target: BMP-2-inducible protein kinase (Homo sapiens) (UniProt Q9NSY1); experiment: Inhibition of BMP2K (unknown origin) by NanoBRET intracellular kinase assay; assay type: cell-based; details: time 2.0 hrs
BMP-2-inducible protein kinase (Homo sapiens), sequence (Q9NSY1 whole entry, looked up, the tested form may be a part): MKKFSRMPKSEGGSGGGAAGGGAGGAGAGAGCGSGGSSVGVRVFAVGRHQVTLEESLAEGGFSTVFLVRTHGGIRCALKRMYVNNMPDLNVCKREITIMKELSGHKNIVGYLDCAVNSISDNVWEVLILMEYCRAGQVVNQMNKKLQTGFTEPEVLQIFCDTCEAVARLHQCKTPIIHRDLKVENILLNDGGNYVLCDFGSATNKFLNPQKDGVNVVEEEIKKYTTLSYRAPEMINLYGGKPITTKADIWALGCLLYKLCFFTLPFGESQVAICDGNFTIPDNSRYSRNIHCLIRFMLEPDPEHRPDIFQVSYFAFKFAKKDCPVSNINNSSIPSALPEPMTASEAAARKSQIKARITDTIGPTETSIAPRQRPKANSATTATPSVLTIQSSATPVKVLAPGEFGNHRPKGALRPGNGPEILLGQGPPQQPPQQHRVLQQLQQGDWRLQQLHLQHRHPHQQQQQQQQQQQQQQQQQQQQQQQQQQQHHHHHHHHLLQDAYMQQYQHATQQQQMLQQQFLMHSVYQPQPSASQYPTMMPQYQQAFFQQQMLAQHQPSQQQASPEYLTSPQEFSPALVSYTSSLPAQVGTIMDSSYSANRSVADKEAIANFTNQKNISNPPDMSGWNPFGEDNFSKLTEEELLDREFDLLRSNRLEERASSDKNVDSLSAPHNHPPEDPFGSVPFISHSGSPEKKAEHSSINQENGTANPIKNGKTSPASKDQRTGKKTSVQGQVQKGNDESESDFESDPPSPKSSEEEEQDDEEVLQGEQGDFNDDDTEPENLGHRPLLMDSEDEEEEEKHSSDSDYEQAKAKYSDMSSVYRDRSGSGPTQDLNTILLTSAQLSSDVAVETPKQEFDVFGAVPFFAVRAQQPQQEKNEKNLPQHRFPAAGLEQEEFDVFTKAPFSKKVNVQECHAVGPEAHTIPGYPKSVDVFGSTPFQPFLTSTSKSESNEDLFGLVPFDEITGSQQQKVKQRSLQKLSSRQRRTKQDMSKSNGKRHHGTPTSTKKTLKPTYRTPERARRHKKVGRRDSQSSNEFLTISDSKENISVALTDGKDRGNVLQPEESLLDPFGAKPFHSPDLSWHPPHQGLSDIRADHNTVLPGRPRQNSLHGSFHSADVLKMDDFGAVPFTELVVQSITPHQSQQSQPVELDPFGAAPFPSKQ

[19] = biological target: Leucine-rich repeat serine/threonine-protein kinase 2 (Homo sapiens, UniProt Q5S007); experiment: Displacement of K5 tracer from full length C-terminal NanoLuc fused human LRRK2 expressed in HEK293T cells incubated for 2 hrs by NanoBRET assay; assay type: cell-based
Leucine-rich repeat serine/threonine-protein kinase 2, sequence (Q5S007 whole entry, the tested form may be a part): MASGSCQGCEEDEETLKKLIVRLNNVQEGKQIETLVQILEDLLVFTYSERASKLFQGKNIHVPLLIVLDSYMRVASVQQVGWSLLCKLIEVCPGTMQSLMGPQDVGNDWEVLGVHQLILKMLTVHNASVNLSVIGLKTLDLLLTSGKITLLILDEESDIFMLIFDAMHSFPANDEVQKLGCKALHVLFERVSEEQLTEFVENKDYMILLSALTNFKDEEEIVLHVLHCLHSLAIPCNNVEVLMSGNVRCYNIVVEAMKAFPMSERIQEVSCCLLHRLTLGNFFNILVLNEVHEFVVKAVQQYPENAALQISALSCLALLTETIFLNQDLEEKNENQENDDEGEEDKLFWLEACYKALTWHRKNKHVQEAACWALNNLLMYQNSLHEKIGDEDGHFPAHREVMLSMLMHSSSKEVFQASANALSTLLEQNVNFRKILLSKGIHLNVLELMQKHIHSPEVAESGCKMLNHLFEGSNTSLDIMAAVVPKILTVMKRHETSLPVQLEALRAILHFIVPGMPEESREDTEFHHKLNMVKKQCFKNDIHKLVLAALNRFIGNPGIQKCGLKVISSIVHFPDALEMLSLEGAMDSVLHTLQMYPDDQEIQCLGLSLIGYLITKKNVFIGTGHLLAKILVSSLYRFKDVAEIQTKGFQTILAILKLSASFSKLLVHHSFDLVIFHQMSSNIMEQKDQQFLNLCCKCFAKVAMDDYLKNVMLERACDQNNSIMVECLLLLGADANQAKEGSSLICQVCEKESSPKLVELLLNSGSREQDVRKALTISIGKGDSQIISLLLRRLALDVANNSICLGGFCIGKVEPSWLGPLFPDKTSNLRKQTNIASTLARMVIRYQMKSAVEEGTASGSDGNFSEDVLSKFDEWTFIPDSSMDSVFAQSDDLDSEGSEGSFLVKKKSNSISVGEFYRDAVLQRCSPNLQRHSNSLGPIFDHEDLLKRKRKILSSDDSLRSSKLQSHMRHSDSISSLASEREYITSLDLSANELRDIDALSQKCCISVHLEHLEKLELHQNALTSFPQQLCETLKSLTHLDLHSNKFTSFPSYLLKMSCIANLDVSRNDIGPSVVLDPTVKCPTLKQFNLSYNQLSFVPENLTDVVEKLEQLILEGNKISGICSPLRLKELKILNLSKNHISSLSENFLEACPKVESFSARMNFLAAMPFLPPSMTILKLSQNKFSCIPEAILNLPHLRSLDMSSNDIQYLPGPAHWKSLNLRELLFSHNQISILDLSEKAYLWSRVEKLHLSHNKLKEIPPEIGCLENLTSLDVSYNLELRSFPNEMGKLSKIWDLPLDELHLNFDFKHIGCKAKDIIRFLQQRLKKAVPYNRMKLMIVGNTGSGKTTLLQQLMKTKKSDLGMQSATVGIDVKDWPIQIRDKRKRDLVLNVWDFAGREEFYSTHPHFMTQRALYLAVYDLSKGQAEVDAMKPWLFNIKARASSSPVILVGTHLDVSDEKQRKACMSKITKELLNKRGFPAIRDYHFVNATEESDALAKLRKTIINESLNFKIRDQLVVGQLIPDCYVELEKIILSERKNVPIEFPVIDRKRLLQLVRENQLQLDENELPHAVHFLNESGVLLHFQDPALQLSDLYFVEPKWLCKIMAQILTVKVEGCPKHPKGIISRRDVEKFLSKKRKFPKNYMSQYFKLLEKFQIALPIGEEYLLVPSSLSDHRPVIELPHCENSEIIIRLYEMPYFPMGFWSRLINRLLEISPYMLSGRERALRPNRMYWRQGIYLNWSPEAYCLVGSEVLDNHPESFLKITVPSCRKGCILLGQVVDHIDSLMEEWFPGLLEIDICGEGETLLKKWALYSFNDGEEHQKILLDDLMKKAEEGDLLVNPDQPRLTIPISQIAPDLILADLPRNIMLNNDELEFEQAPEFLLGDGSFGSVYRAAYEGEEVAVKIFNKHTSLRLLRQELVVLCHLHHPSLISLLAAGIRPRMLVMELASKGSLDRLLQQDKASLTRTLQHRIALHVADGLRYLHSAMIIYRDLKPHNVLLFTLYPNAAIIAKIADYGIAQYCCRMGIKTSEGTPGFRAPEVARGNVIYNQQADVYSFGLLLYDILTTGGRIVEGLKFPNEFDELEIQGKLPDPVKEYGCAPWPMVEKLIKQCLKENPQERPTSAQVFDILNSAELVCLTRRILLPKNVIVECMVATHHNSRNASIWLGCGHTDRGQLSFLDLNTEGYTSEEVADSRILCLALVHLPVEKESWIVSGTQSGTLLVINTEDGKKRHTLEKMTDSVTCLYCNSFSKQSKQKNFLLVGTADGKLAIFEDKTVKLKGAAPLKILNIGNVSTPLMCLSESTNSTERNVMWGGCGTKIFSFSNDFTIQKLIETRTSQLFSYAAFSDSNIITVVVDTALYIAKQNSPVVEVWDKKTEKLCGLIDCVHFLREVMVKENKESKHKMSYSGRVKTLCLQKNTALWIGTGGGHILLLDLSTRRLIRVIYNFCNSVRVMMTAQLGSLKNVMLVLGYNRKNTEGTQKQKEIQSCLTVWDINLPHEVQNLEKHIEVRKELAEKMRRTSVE

[20] = biological target: T1, Serine/threonine-protein kinase 4; remark: listed apart in the source
[21] = Permeability in human Caco-2 cells; assay type: ADME, cell-based
[22] = Inhibition of MOB1 phosphorylation in human MOLM-13 cells assessed as decrease in pMOB1 activity preincubated for 4 hrs followed by H2O2 addition for 2 hrs by Western blotting analysis; assay type: cell-based
[23] = Drug concentration in C57BL/6 mouse liver at 10 mg/kg, ip administered for 1 hr; assay type: ADME, organism-based; details: read-out: Ct
[24] = biological target: T6, Serine/threonine-protein kinase 4 (Homo sapiens) (UniProt Q13043); details: dose 20.0 µM
T6 sequence (whole entry): T1 sequence (Q13043 whole entry)
Description: Inhibition of recombinant N-terminal His6-tagged human STK4 (43 to 431 residues) expressed in Escherichia coli assessed as melting temperature at 20 uM by thermal shift assay (Rvb = 55 degreeC)

[25] = Drug concentration in C57BL/6 mouse liver at 10 mg/kg, ip administered for 2 hrs; assay type: ADME, organism-based; details: read-out: Ct
[26] = Drug concentration in C57BL/6 mouse liver at 10 mg/kg, ip administered for 3 hrs; assay type: ADME, organism-based; details: read-out: Ct

SMILES | Tmax [2] [min] | concentration at 0.5 h [3] [µM] | IC50 [4] [nM] | Cmax [5] [µM] | IC50 [6] [nM] | inhibition [7] | Activity (THP-1) | inhibition [8] | t1/2 [9] [min] | Activity (SKNO-1) | inhibition [11] | inhibition [12] | Activity (OCI-AML-3) | IC50 [13] [nM] | inhibition [14] | inhibition (Mus musculus) | Activity (Kasumi 1) | AUCt [17] [µM·h] | inhibition [18] | IC50 [19] [nM] | further results
OC1CCN(c2ncnc3[nH]cc(-c4cccc(Cl)c4)c23)CC1 | 15 | 11.6 | 250 | 5.8 | 127 | inactive | Dose-Dependent Effect | Active | 594 | Dose-Dependent Effect | Active | Active | Dose-Dependent Effect | 433 | Active | Active | Dose-Dependent Effect | 4.3 | inactive | 1340 | Activity (MOLM-13 [1]): Dose-Dependent Effect; Activity (MV4-11): Dose-Dependent Effect; inhibition (MOLM-13 [10]): Active; ΔTm [15]: > 5.2 °C; Kinetic_solubility [16]: 189 µM; IC50 [20]: 80 nM; permeability [21]: Permeable
CC(=O)NC1CCN(c2ncnc3[nH]cc(-c4cccc(Cl)c4)c23)CC1 | 15 | – | 122 | 11.8 | 36 | inactive | Dose-Dependent Effect | Active | 318 | Dose-Dependent Effect | – | Active | Dose-Dependent Effect | 139 | Active | Active | Dose-Dependent Effect | 8.1 | inactive | 1390 | IC50 (MOLM-13 [1]; MOLM-13, 72 h): 5800 nM; IC50 [22]: 413 nM; IC50 (MV4-11; MV4-11, 72 h): 3700 nM; IC50 [20]: 26 nM
NC(=O)c1cccc(-c2c[nH]c3ncnc(N4CCOCC4)c23)c1 | 30 | 15.9 | – | 11.9 | 233 | – | – | – | 42 | – | Active | – | – | 303 | – | Active | – | 9.5 | – | 2360 | concentration at 1 h [23]: 28 µM; Tm [24]: 63.3 °C; concentration at 2 h [25]: 2.5 µM; concentration at 3 h [26]: 1.2 µM

Source: ChEMBL document CHEMBL5042489, “Inhibitors of the Hippo Pathway Kinases STK3/MST2 and STK4/MST1 Have Utility for the Treatment of Acute Myeloid Leukemia” (J Med Chem, 2022)
